“And” between values parts separate entries of the source, which are not always exact repeats. Equal values may be shown once.
What was measured:
mouse Fpr3 (Fpr-rs1) = target: T1, mouse Fpr3 (Fpr-rs1) (Mus musculus, UniProt O08790); experiment: Heterologous expression / high-throughput Ca2+ imaging agonist screen and sequence selectivity of Fpr3 (Fig. 1a, 2c-e, 2g, 2i); type: cell-based; conditions: mean of n = 3 experiments in triplicate (n = 5 for f-MKKFRW), Fpr3 + Gα16 HEK293T, Fluo-4/AM, FLIPR, buffer C1 pH 7.2, mock 0.059-0.060
T1 construct: expressed in transfected cells; host or cells: HEK293T (DSMZ # ACC-635), transient transfection with jetPEI
T1 sequence (O08790 1-351): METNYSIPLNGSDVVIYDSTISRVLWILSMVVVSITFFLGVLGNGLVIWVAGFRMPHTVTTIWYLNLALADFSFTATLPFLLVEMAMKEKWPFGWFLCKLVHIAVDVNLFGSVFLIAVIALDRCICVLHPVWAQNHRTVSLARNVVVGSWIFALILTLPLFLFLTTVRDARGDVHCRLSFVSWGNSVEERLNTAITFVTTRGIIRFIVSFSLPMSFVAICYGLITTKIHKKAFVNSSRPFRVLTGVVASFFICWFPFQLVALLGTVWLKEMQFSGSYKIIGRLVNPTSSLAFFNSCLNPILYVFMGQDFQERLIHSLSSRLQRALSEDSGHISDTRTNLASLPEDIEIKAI
Experimental: An Fpr3 gene subcloned from genomic DNA of C57BL/6J mice into pcDNA3.1 (Invitrogen) was used in heterologous experiments[21],[80]. HEK293T (DSMZ # ACC-635) cells were seeded at 20–30% confluence on poly-D-lysine-coated (10 µg/ml in PBS) black 96-well µCLEAR-Plates (Greiner Bio-One). Cells were transfected 24 h later using jetPEI™ (Polyplus-transfection SA) according to the manufacturer’s protocol for 96-well transfections. For Ca^2+ imaging experiments, 0.125 µg of DNA plasmid encoding Fpr3 were cotransfected with equal amounts of a plasmid encoding Gα16, a promiscuous G protein α-subunit. Ca^2+ signals to agonist stimulation were recorded 48 h post transfection using the Ca^2+ indicator dye Fluo-4/AM (Molecular Probes) and a fluorescence imaging plate reader (FLIPR) system (Molecular Devices). Cotransfection of a plasmid encoding Gα16 with an empty vector used to subclone Fpr3 gave no agonist-evoked Ca^2+ responses.
We used custom-made peptides with a length of 6–21 amino acids to screen for agonists. Sequences of fMet peptides were designed according to motifs present at the N-termini of 15,125 specific bacterial proteins as annotated in UniProt. Peptides were chemically synthesised, purified, and verified by mass spectroscopy (MALDI-TOF) by commercial suppliers. Purity of all peptides was >95%. Source, sequence and purity of each peptide are listed in Supplementary Data 1. Lyophilised peptides were routinely dissolved in the Ca^2+ imaging assay buffer C1 (130 mM NaCl, 10 mM HEPES, 5 mM KCl, 2 mM CaCl2, 5 mM glucose, pH 7.2) as 0.2–1 mM stock solutions and kept in small aliquots at −20 °C until use. […] The sequences of these peptides exist in proteins from the following bacterial strains[21]: Psychromonas ingrahamii that belongs to a marine ice water microbial community, Desulfotomaculum reducens that is found in deep freshwater lakes, and Pseudomonas grimontii, a plant pathogen. As mice are unlikely to encounter these strains in their natural habitat, these findings are probably not of biological relevance.

male mice = experiment: Behavioural avoidance test, FEU vs. FEU supplemented with peptide (Fig. 8, Supplementary Fig. 4); type: in vivo, mouse; conditions: Fig. 8c, B6 mice
Experimental: These assays were adapted from behavioural procedures described previously[14],[60]. We tested avoidance by giving adult male mice (8–14 week old) of various genotypes a choice to freely investigate two types of chemical stimuli: FEU vs. FEU supplemented with a peptide. Mice were sexually naïve and not exposed to the test stimuli prior to the testing day. Mice were habituated for three days (40 min each day) to clean filter papers (2.5 cm diameter), each deposited in a sterile plastic culture dish and placed in opposite corners of the test cage (30 × 12 cm). After the third habituation period, the test subject was transferred into a new cage containing fresh filter papers/dishes with either of the two test stimuli. One filter paper was impregnated with 45 µl of fresh urine pooled from two sexually naïve female B6 mice (8–16 weeks old) in oestrus (FEU, female oestrous urine) and 5 µl physiological solution containing (in mM): NaCl, 130; KCl, 5; Na-Hepes, 10; CaCl2, 2; glucose, 10; pH = 7.4. For testing the effects of specific peptides, the second filter paper was impregnated with FEU supplemented with a given peptide (100 or 50 µM final concentration, dissolved in physiological solution). Direct physical contact was allowed. Behaviour was recorded for 10 min from the top of the cage. Mice were exposed only once to a given peptide solution, and were exposed to only one peptide stimulus per day. Stimuli were presented in randomised order. […] This investigative behaviour was quantified as the time spent in close contact with each filter paper, scored manually by an observer blind to the experimental conditions using Behavioural Observation Research Interactive Software (BORIS)[85]. Contact time was measured as the time during which the nose crossed the border of a petri dish containing impregnated filter paper. An avoidance index was calculated as (TP — aTU)/(aTP + aTU), with TP as the time an individual mouse investigated a FEU-peptide mixture, aTP as the average time of all tested mice investigating this stimulus and aTU as the average time of all mice investigating FEU without added peptide. Negative values represent avoidance and positive values represent attraction. For analysing investigation of sick conspecifics, B6 mice were injected either with LPS or PBS as described above. In total, 4 h post injection, these mice were anaesthetised with 165 mg/kg ketamine (Pharmacia GmbH, Berlin, Germany) and 11 mg/kg xylazine (Bayer Health Care, Leverkusen, Germany) and then used in behavioural tests.

Substance	Ca2+ response, mean (mouse Fpr3 (Fpr-rs1); 3 µM)	Ca2+ response, mean (mouse Fpr3 (Fpr-rs1); 30 µM)	Preference Index (male mice; individual values)	Preference Index (male mice; mean, n = 11 f-MKKFRW, 11 MKKFRW, 10 f-MGFFIS, 10 f-MEQQNK, FEU control -0.002)
f-MAMKKL [synthesized fMet peptide]	0.058 ∆F/F	0.059 ∆F/F	–	–
f-MAQDIISTI [synthesized fMet peptide]	0.079 ∆F/F	0.075 ∆F/F	–	–
f-MAYPFQ [synthesized fMet peptide]	0.059 ∆F/F	0.061 ∆F/F	–	–
f-MEFVAK [synthesized fMet peptide]	0.051 ∆F/F	0.076 ∆F/F	–	–
f-MEFVAKLFK [synthesized fMet peptide]	0.071 ∆F/F	0.062 ∆F/F	–	–
f-MEQQNK [synthesized fMet peptide]	0.047 ∆F/F	0.050 ∆F/F	-0.06064 and -0.05774 and -0.1328 and -0.09632 and 0.7296 and -0.0445 and 0.1064 and -0.1977 and 0.2779 and -0.1553	0.0369
f-MFIYYCK [synthesized fMet peptide]	0.053 ∆F/F	0.042 ∆F/F	–	–
f-MINKKI [synthesized fMet peptide]	0.058 ∆F/F	0.045 ∆F/F	–	–
f-MKFCTA [synthesized fMet peptide]	0.034 ∆F/F	0.080 ∆F/F	–	–
f-MKKFLL [synthesized fMet peptide]	0.052 ∆F/F	0.050 ∆F/F	–	–
f-MKKFNI [synthesized fMet peptide]	0.053 ∆F/F	0.044 ∆F/F	–	–
f-MKKFYS [synthesized fMet peptide]	0.058 ∆F/F	0.056 ∆F/F	–	–
f-MKKHRW [synthesized fMet peptide]	0.061 ∆F/F	0.054 ∆F/F	–	–
f-MKKIML [synthesized fMet peptide]	0.050 ∆F/F	0.055 ∆F/F	–	–
f-MKKISKFLP [synthesized fMet peptide]	0.055 ∆F/F	0.072 ∆F/F	–	–
f-MKKLLNKIV [synthesized fMet peptide]	0.056 ∆F/F	0.054 ∆F/F	–	–
f-MKKNLV [synthesized fMet peptide]	0.052 ∆F/F	0.053 ∆F/F	–	–
f-MKKTLSLKN [synthesized fMet peptide]	0.068 ∆F/F	0.058 ∆F/F	–	–
f-MKKWRW [synthesized fMet peptide]	0.056 ∆F/F	0.063 ∆F/F	–	–
f-MKKYKRLLL [synthesized fMet peptide]	0.074 ∆F/F	0.065 ∆F/F	–	–

Substance	Ca2+ response, mean (mouse Fpr3 (Fpr-rs1); 3 µM)	Ca2+ response, mean (mouse Fpr3 (Fpr-rs1); 30 µM)	Preference Index (male mice; individual values)	Preference Index (male mice; mean, n = 11 f-MKKFRW, 11 MKKFRW, 10 f-MGFFIS, 10 f-MEQQNK, FEU control -0.002)
f-MKNFKG [synthesized fMet peptide, bacterial signal peptide fragment]	0.065 ∆F/F	0.052 ∆F/F	–	–
f-MKTSIR [synthesized fMet peptide]	0.055 ∆F/F	0.049 ∆F/F	–	–
f-MLFKYL [synthesized fMet peptide]	0.053 ∆F/F	0.056 ∆F/F	–	–
f-MLFKYS [synthesized fMet peptide]	0.054 ∆F/F	0.048 ∆F/F	–	–
f-MLKIIL [synthesized fMet peptide]	0.057 ∆F/F	0.057 ∆F/F	–	–
f-MLNKKKRGN [synthesized fMet peptide]	0.056 ∆F/F	0.058 ∆F/F	–	–
f-MMKMEG [synthesized fMet peptide]	0.048 ∆F/F	0.040 ∆F/F	–	–
f-MNIFTT [synthesized fMet peptide]	0.059 ∆F/F	0.065 ∆F/F	–	–
f-MNKKLL [f-MNKLL, synthesized fMet peptide]	0.038 ∆F/F	0.039 ∆F/F	–	–
f-MNPITL [synthesized fMet peptide]	0.053 ∆F/F	0.062 ∆F/F	–	–
f-MPKLNR [synthesized fMet peptide]	0.048 ∆F/F	0.033 ∆F/F	–	–
f-MPQLDT [synthesized fMet peptide]	0.060 ∆F/F	0.058 ∆F/F	–	–
f-MPSTFF [synthesized fMet peptide]	0.063 ∆F/F	0.065 ∆F/F	–	–
f-MTHQTH [synthesized fMet peptide]	0.064 ∆F/F	0.077 ∆F/F	–	–
f-MTNKIS [synthesized fMet peptide]	0.052 ∆F/F	0.049 ∆F/F	–	–
f-MTNMRK [synthesized fMet peptide]	0.089 ∆F/F	0.060 ∆F/F	–	–
f-MVKIIF [synthesized fMet peptide]	0.045 ∆F/F	0.054 ∆F/F	–	–
f-MVMKFK [synthesized fMet peptide]	0.053 ∆F/F	0.050 ∆F/F	–	–
f-MVPISI [synthesized fMet peptide]	0.048 ∆F/F	0.044 ∆F/F	–	–

Reference: PMC6814738, “Bacterial MgrB peptide activates chemoreceptor Fpr3 in mouse accessory olfactory system and drives avoidance behaviour” (Nature Communications, 2019)
